# Results from patent US8741944B2, “Anti-infective agents against intracellular pathogens” (priority 2007, dated 2014).
# Assays:
# SR (Leukemia) = experiment: NCI DTP tumor cell line screen (SRB), SR
# Protocol: (§1) For a typical screening experiment, cells are inoculated into 96 well microtiter plates in 100 μL at plating densities ranging from 5,000 to 40,000 cells/well depending on the doubling time of individual cell lines. After cell inoculation, the microtiter plates are incubated at 37° C., 5% CO2, 95% air and 100% relative humidity for 24 h prior to addition of experimental drugs.
# (§2) After 24 h, two plates of each cell line are fixed in situ with TCA, to represent a measurement of the cell population for each cell line at the time of drug addition (Tz). Experimental drugs are solubilized in dimethyl sulfoxide at 400-fold the desired final maximum test concentration and stored frozen prior to use. At the time of drug addition, an aliquot of frozen concentrate is thawed and diluted to twice the desired final maximum test concentration with complete medium containing 50 μg/ml gentamicin. Additional four, 10-fold or ½ log serial dilutions are made to provide a total of five drug concentrations plus control. Aliquots of 100 μl of these different drug dilutions are added to the appropriate microtiter wells already containing 100 μl of medium, resulting in the required final drug concentrations.
# (§3) Following drug addition, the plates are incubated for an additional 48 h at 37° C., 5% CO2, 95% air, and 100% relative humidity. For adherent cells, the assay is terminated by the addition of cold TCA. Cells are fixed in situ by the gentle addition of 50 μl of cold 50% (w/v) TCA (final concentration, 10% TCA) and incubated for 60 minutes at 4° C. The supernatant is discarded, and the plates are washed five times with tap water and air dried. Sulforhodamine B (SRB) solution (1001) at 0.4% (w/v) in 1% acetic acid is added to each well, and plates are incubated for 10 minutes at room temperature. After staining, unbound dye is removed by washing five times with 1% acetic acid and the plates are air dried. Bound stain is subsequently solubilized with 10 mM trizma base, and the absorbance is read on an automated plate reader at a wavelength of 515 nm. For suspension cells, the methodology is the same except that the assay is terminated by fixing settled cells at the bottom of the wells by gently adding 50 μl of 80% TCA (final concentration, 16% TCA). Using the seven absorbance measurements [time zero, (Tz), control growth, (C), and test growth in the presence of drug at the five concentration levels (Ti)], the percentage growth is calculated at each of the drug concentrations levels. Percentage growth inhibition is calculated as: [(Ti−Tz)/(C−Tz)]×100 for concentrations for which Ti>/=Tz [(Ti−Tz)/Tz]×100 for concentrations for which Ti<Tz
# (§4) Three dose response parameters are calculated for each experimental agent. […] The drug concentration resulting in total growth inhibition (TGI) is calculated from Ti=Tz. […] Values are calculated for each of these three parameters if the level of activity is reached; however, if the effect is not reached or is exceeded, the value for that parameter is expressed as greater or less than the maximum or minimum concentration tested.
# [1] = test system: EKVX (Non-Small Cell Lung Cancer); experiment: NCI DTP tumor cell line screen (SRB), EKVX
# Protocol: as §1, §2, §3, §4
# A498 (Renal Cancer) = experiment: NCI DTP tumor cell line screen (SRB), A498
# Protocol: as §1, §2, §3, §4
# ACHN (Renal Cancer) = experiment: NCI DTP tumor cell line screen (SRB), ACHN
# Protocol: as §1, §2, §3, §4
# K-562 (Leukemia) = experiment: NCI DTP tumor cell line screen (SRB), K-562
# Protocol: as §1, §2, §3, §4
# SN12C (Renal Cancer) = experiment: NCI DTP tumor cell line screen (SRB), SN12C
# Protocol: as §1, §2, §3, §4
# SW-620 (Colon Cancer) = experiment: NCI DTP tumor cell line screen (SRB), SW-620
# Protocol: as §1, §2, §3, §4
# DU-145 (Prostate Cancer) = experiment: NCI DTP tumor cell line screen (SRB), DU-145
# Protocol: as §1, §2, §3, §4
# OVCAR-3 (Ovarian Cancer) = experiment: NCI DTP tumor cell line screen (SRB), OVCAR-3
# Protocol: as §1, §2, §3, §4
# HS 578T (Breast Cancer) = experiment: NCI DTP tumor cell line screen (SRB), HS 578T
# Protocol: as §1, §2, §3, §4
# LOX IMVI (Melanoma) = experiment: NCI DTP tumor cell line screen (SRB), LOX IMVI
# Protocol: as §1, §2, §3, §4
# SK-MEL-2 (Melanoma) = experiment: NCI DTP tumor cell line screen (SRB), SK-MEL-2
# Protocol: as §1, §2, §3, §4
# RPMI-8226 (Leukemia) = experiment: NCI DTP tumor cell line screen (SRB), RPMI-8226
# Protocol: as §1, §2, §3, §4
# [2] = test system: A549/ATCC (Non-Small Cell Lung Cancer); experiment: NCI DTP tumor cell line screen (SRB), A549/ATCC
# Protocol: as §1, §2, §3, §4
# [3] = test system: MDA-MB-231/ATCC (Breast Cancer); experiment: NCI DTP tumor cell line screen (SRB), MDA-MB-231/ATCC
# Protocol: as §1, §2, §3, §4
compound,measurement,setting,value
"NCC(=O)Nc1ccc(-n2nc(C(F)(F)F)cc2-c2ccc3c(ccc4ccccc43)c2)cc1 [Compound 70, 2-Amino-N-{4-[5-(2-phenanthrenyl)-3-(trifluoromethyl)-1H-pyrazol-1-yl]-phenyl}-acetamide]",TGI,SR (Leukemia),4.17E−06
same,Mean Optical Densities,SR (Leukemia); Log10 Concentration −4.0,0.363
same,Mean Optical Densities,SR (Leukemia); Log10 Concentration −5.0,0.265
same,Percent Growth,SR (Leukemia); Log10 Concentration −5.0,−27%
same,Mean Optical Densities,SR (Leukemia); Log10 Concentration −6.0,0.605
same,Percent Growth,SR (Leukemia); Log10 Concentration −6.0,45%
same,Mean Optical Densities,SR (Leukemia); Log10 Concentration −7.0,0.796
same,Percent Growth,SR (Leukemia); Log10 Concentration −7.0,80%
same,Mean Optical Densities,SR (Leukemia); Log10 Concentration −8.0,0.816
same,Percent Growth,SR (Leukemia); Log10 Concentration −8.0,84%
same,TGI,[1],3.25E−06
same,Mean Optical Densities,[1]; Log10 Concentration −4.0,0.193
same,Mean Optical Densities,[1]; Log10 Concentration −5.0,0.156
same,Percent Growth,[1]; Log10 Concentration −5.0,−72%
same,Mean Optical Densities,[1]; Log10 Concentration −6.0,0.786
same,Percent Growth,[1]; Log10 Concentration −6.0,75%
same,Mean Optical Densities,[1]; Log10 Concentration −7.0,0.860
same,Percent Growth,[1]; Log10 Concentration −7.0,100%
same,Mean Optical Densities,[1]; Log10 Concentration −8.0,0.891
same,Percent Growth,[1]; Log10 Concentration −8.0,110%
same,TGI,A498 (Renal Cancer),5.75E−06
same,Mean Optical Densities,A498 (Renal Cancer); Log10 Concentration −4.0,0.433
same,Mean Optical Densities,A498 (Renal Cancer); Log10 Concentration −5.0,0.660
same,Percent Growth,A498 (Renal Cancer); Log10 Concentration −5.0,−30%
same,Mean Optical Densities,A498 (Renal Cancer); Log10 Concentration −6.0,2.201
same,Percent Growth,A498 (Renal Cancer); Log10 Concentration −6.0,95%
same,Mean Optical Densities,A498 (Renal Cancer); Log10 Concentration −7.0,2.598
same,Percent Growth,A498 (Renal Cancer); Log10 Concentration −7.0,126%
same,Mean Optical Densities,A498 (Renal Cancer); Log10 Concentration −8.0,2.230
same,Percent Growth,A498 (Renal Cancer); Log10 Concentration −8.0,98%
same,TGI,ACHN (Renal Cancer),3.45E−06
same,Mean Optical Densities,ACHN (Renal Cancer); Log10 Concentration −4.0,0.313
same,Mean Optical Densities,ACHN (Renal Cancer); Log10 Concentration −5.0,0.150
same,Percent Growth,ACHN (Renal Cancer); Log10 Concentration −5.0,−60%
same,Mean Optical Densities,ACHN (Renal Cancer); Log10 Concentration −6.0,0.829
same,Percent Growth,ACHN (Renal Cancer); Log10 Concentration −6.0,70%
same,Mean Optical Densities,ACHN (Renal Cancer); Log10 Concentration −7.0,1.037
same,Percent Growth,ACHN (Renal Cancer); Log10 Concentration −7.0,102%
same,Mean Optical Densities,ACHN (Renal Cancer); Log10 Concentration −8.0,0.985
same,Percent Growth,ACHN (Renal Cancer); Log10 Concentration −8.0,94%
same,TGI,K-562 (Leukemia),3.34E−06
same,Mean Optical Densities,K-562 (Leukemia); Log10 Concentration −4.0,0.247
same,Mean Optical Densities,K-562 (Leukemia); Log10 Concentration −5.0,0.209
same,Percent Growth,K-562 (Leukemia); Log10 Concentration −5.0,−30%
same,Mean Optical Densities,K-562 (Leukemia); Log10 Concentration −6.0,0.681
same,Percent Growth,K-562 (Leukemia); Log10 Concentration −6.0,33%
same,Mean Optical Densities,K-562 (Leukemia); Log10 Concentration −7.0,1.022
same,Percent Growth,K-562 (Leukemia); Log10 Concentration −7.0,62%
same,Mean Optical Densities,K-562 (Leukemia); Log10 Concentration −8.0,1.435
same,Percent Growth,K-562 (Leukemia); Log10 Concentration −8.0,97%
same,TGI,SN12C (Renal Cancer),3.51E−06
same,Mean Optical Densities,SN12C (Renal Cancer); Log10 Concentration −4.0,0.308
same,Mean Optical Densities,SN12C (Renal Cancer); Log10 Concentration −5.0,0.203
same,Percent Growth,SN12C (Renal Cancer); Log10 Concentration −5.0,−65%
same,Mean Optical Densities,SN12C (Renal Cancer); Log10 Concentration −6.0,1.093
same,Percent Growth,SN12C (Renal Cancer); Log10 Concentration −6.0,78%
same,Mean Optical Densities,SN12C (Renal Cancer); Log10 Concentration −7.0,1.194
same,Percent Growth,SN12C (Renal Cancer); Log10 Concentration −7.0,94%
same,Mean Optical Densities,SN12C (Renal Cancer); Log10 Concentration −8.0,1.209
same,Percent Growth,SN12C (Renal Cancer); Log10 Concentration −8.0,96%
same,TGI,SW-620 (Colon Cancer),4.23E−06
same,Mean Optical Densities,SW-620 (Colon Cancer); Log10 Concentration −4.0,0.136
same,Mean Optical Densities,SW-620 (Colon Cancer); Log10 Concentration −5.0,0.127
same,Percent Growth,SW-620 (Colon Cancer); Log10 Concentration −5.0,−32%
same,Mean Optical Densities,SW-620 (Colon Cancer); Log10 Concentration −6.0,0.736
same,Percent Growth,SW-620 (Colon Cancer); Log10 Concentration −6.0,54%
same,Mean Optical Densities,SW-620 (Colon Cancer); Log10 Concentration −7.0,1.198
same,Percent Growth,SW-620 (Colon Cancer); Log10 Concentration −7.0,100%
same,Mean Optical Densities,SW-620 (Colon Cancer); Log10 Concentration −8.0,1.197
same,Percent Growth,SW-620 (Colon Cancer); Log10 Concentration −8.0,100%
same,TGI,DU-145 (Prostate Cancer),3.47E−06
same,Mean Optical Densities,DU-145 (Prostate Cancer); Log10 Concentration −4.0,0.132
same,Mean Optical Densities,DU-145 (Prostate Cancer); Log10 Concentration −5.0,0.078
same,Percent Growth,DU-145 (Prostate Cancer); Log10 Concentration −5.0,−76%
same,Mean Optical Densities,DU-145 (Prostate Cancer); Log10 Concentration −6.0,0.895
same,Percent Growth,DU-145 (Prostate Cancer); Log10 Concentration −6.0,90%
same,Mean Optical Densities,DU-145 (Prostate Cancer); Log10 Concentration −7.0,1.018
same,Percent Growth,DU-145 (Prostate Cancer); Log10 Concentration −7.0,109%
same,Mean Optical Densities,DU-145 (Prostate Cancer); Log10 Concentration −8.0,0.993
same,Percent Growth,DU-145 (Prostate Cancer); Log10 Concentration −8.0,105%
same,TGI,OVCAR-3 (Ovarian Cancer),3.32E−06
same,Mean Optical Densities,OVCAR-3 (Ovarian Cancer); Log10 Concentration −4.0,0.301
same,Mean Optical Densities,OVCAR-3 (Ovarian Cancer); Log10 Concentration −5.0,0.140
same,Percent Growth,OVCAR-3 (Ovarian Cancer); Log10 Concentration −5.0,−70%
same,Mean Optical Densities,OVCAR-3 (Ovarian Cancer); Log10 Concentration −6.0,0.816
same,Percent Growth,OVCAR-3 (Ovarian Cancer); Log10 Concentration −6.0,76%
same,Mean Optical Densities,OVCAR-3 (Ovarian Cancer); Log10 Concentration −7.0,0.849
same,Percent Growth,OVCAR-3 (Ovarian Cancer); Log10 Concentration −7.0,83%
same,Mean Optical Densities,OVCAR-3 (Ovarian Cancer); Log10 Concentration −8.0,0.879
same,Percent Growth,OVCAR-3 (Ovarian Cancer); Log10 Concentration −8.0,89%
same,TGI,HS 578T (Breast Cancer),5.25E−06
same,Mean Optical Densities,HS 578T (Breast Cancer); Log10 Concentration −4.0,0.333
same,Mean Optical Densities,HS 578T (Breast Cancer); Log10 Concentration −5.0,0.351
same,Mean Optical Densities,HS 578T (Breast Cancer); Log10 Concentration −6.0,1.110
same,Mean Optical Densities,HS 578T (Breast Cancer); Log10 Concentration −7.0,1.179
same,Mean Optical Densities,HS 578T (Breast Cancer); Log10 Concentration −8.0,1.221
same,TGI,LOX IMVI (Melanoma),3.07E−06
same,Mean Optical Densities,LOX IMVI (Melanoma); Log10 Concentration −4.0,0.352
same,Mean Optical Densities,LOX IMVI (Melanoma); Log10 Concentration −5.0,0.176
same,Percent Growth,LOX IMVI (Melanoma); Log10 Concentration −5.0,−50%
same,Mean Optical Densities,LOX IMVI (Melanoma); Log10 Concentration −6.0,0.742
same,Percent Growth,LOX IMVI (Melanoma); Log10 Concentration −6.0,48%
same,Mean Optical Densities,LOX IMVI (Melanoma); Log10 Concentration −7.0,0.974
same,Percent Growth,LOX IMVI (Melanoma); Log10 Concentration −7.0,76%
same,Mean Optical Densities,LOX IMVI (Melanoma); Log10 Concentration −8.0,1.204
same,Percent Growth,LOX IMVI (Melanoma); Log10 Concentration −8.0,105%
same,TGI,SK-MEL-2 (Melanoma),5.40E−06
same,Mean Optical Densities,SK-MEL-2 (Melanoma); Log10 Concentration −4.0,0.330
same,Mean Optical Densities,SK-MEL-2 (Melanoma); Log10 Concentration −5.0,0.289
same,Mean Optical Densities,SK-MEL-2 (Melanoma); Log10 Concentration −6.0,0.885
same,Percent Growth,SK-MEL-2 (Melanoma); Log10 Concentration −6.0,100%
same,Mean Optical Densities,SK-MEL-2 (Melanoma); Log10 Concentration −7.0,0.956
same,Percent Growth,SK-MEL-2 (Melanoma); Log10 Concentration −7.0,117%
same,Mean Optical Densities,SK-MEL-2 (Melanoma); Log10 Concentration −8.0,0.943
same,Percent Growth,SK-MEL-2 (Melanoma); Log10 Concentration −8.0,114%
same,TGI,RPMI-8226 (Leukemia),2.84E−06
same,Mean Optical Densities,RPMI-8226 (Leukemia); Log10 Concentration −4.0,0.229
same,Mean Optical Densities,RPMI-8226 (Leukemia); Log10 Concentration −5.0,0.164
same,Percent Growth,RPMI-8226 (Leukemia); Log10 Concentration −5.0,−51%
same,Mean Optical Densities,RPMI-8226 (Leukemia); Log10 Concentration −6.0,0.547
same,Percent Growth,RPMI-8226 (Leukemia); Log10 Concentration −6.0,42%
same,Mean Optical Densities,RPMI-8226 (Leukemia); Log10 Concentration −7.0,0.701
same,Percent Growth,RPMI-8226 (Leukemia); Log10 Concentration −7.0,72%
same,Mean Optical Densities,RPMI-8226 (Leukemia); Log10 Concentration −8.0,0.766
same,Percent Growth,RPMI-8226 (Leukemia); Log10 Concentration −8.0,85%
same,TGI,[2],2.96E−06
same,Mean Optical Densities,[2]; Log10 Concentration −4.0,0.252
same,Mean Optical Densities,[2]; Log10 Concentration −5.0,0.155
same,Percent Growth,[2]; Log10 Concentration −5.0,−57%
same,Mean Optical Densities,[2]; Log10 Concentration −6.0,0.831
same,Percent Growth,[2]; Log10 Concentration −6.0,51%
same,Mean Optical Densities,[2]; Log10 Concentration −7.0,1.149
same,Percent Growth,[2]; Log10 Concentration −7.0,86%
same,Mean Optical Densities,[2]; Log10 Concentration −8.0,1.294
same,Percent Growth,[2]; Log10 Concentration −8.0,102%
same,TGI,[3],2.77E−06
same,Mean Optical Densities,[3]; Log10 Concentration −4.0,0.306
same,Mean Optical Densities,[3]; Log10 Concentration −5.0,0.173
same,Percent Growth,[3]; Log10 Concentration −5.0,−73%
same,Mean Optical Densities,[3]; Log10 Concentration −6.0,0.843
same,Percent Growth,[3]; Log10 Concentration −6.0,58%
same,Mean Optical Densities,[3]; Log10 Concentration −7.0,0.889
same,Percent Growth,[3]; Log10 Concentration −7.0,71%
same,Mean Optical Densities,[3]; Log10 Concentration −8.0,0.988
same,Percent Growth,[3]; Log10 Concentration −8.0,100%
